Patent US9664690B1, “Molecular diagnostic kits for evaluating stress” (The National Institute for Biotechnology in the Negev Ltd., priority 2013, dated 2017)

Test system: PBMCs
Experiment: GR antagonist block of MP immunosuppressive effects in anti-CD3 stimulated PBMCs (IFNg ELISA)
Format: cell-based, human
Conditions: plate-bound anti-CD3 48 hours, MP plus mifepristone
Description: Peripheral blood lymphocytes were stimulated in 96-well culture plate (2×10^5 cells/well) with plate bound anti-CD3 mAb (0.5 μg/ml), and cultured for 48 h at 37° C. The cultured supernatants were removed and stored at […]. Cytokine concentration in the supernatants were measured by ELISA using human cytokine kits.
Another approach to investigate the functionality of GR is by the examination of the responsiveness of immune cell subsets to the glucocorticoid antagonist, mifepristone. […] This indicates an impairment in GR signaling which contributes to steroid resistance, which could be tested in stressed and non-stressed individuals as described herein. Such an impairment could also optionally act as a biomarker for the stress diagnostic kit according to at least some embodiments thereof.
PBMCs were purified from young healthy-aged and AD subjects, stimulated by plate-bound anti-CD3 mAb (0.5 micro-g/ml) for 48 hours in the presence of MP or with both MP and GR antagonist, mifepristone. The cultured supernatants were examined for IFNg production by ELISA; the results are shown as percentage of the levels measured without MP.

In the case of CC#C[C@]1(O)CC[C@H]2[C@@H]3CCC4=CC(=O)CCC4=C3[C@@H](c3ccc(N(C)C)cc3)C[C@@]21C [mifepristone], the “blocking of MP immunosuppressive effects (IFNg production)” value (PBMCs of aged and Alzheimer's disease (AD) subjects) is reported as “impaired” and the “blocking of MP immunosuppressive effects (IFNg production)” value (PBMCs of young subjects) is reported as “partially blocks”.
